The cell lines below were run with C1CSC2=C(C(=O)N1)SC3=C2C=C(C=C3)O [kb NB 142-70] + O=C(c1cc(Cc2n[nH]c(=O)c3ccccc23)ccc1F)N1CCN(C(=O)C2CC2)CC1 [Olaparib] (partner 8 µM) (assay: relative viability (nuclei count vs DMSO), 5 days (fraction); higher = more cells survive). Details: first compound 0.1 µM.
Summary of the method: (§1)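 Lung cancer cell lines, seeded in 1536-well plates, were treated the following day by pin tool with a single drug or with five library-drug doses (not always all listed) in √10 steps on top of a fixed anchor-drug dose. Cells were fixed and nuclei stained in one step after 5 days, and nuclei were counted. Relative viability is the nuclei count for treated wells divided by that for vehicle wells, reported as medians of duplicate plates.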

Cell Line | relative viability
NCI-H2405 | 0.824
HOP-62 | 0.457
A549 | 0.305
LU99A | 0.274
BEN | 1.09
HARA | 0.873
HCC-78 | 0.791
NCI-H322M | 0.777
LCLC-97TM1 | 0.404
NCI-H2009 | 0.721
A-427 | 0.747
NCI-H441 | 0.631
NCI-H661 | 0.731
NCI-H1734 | 0.586
NCI-H460 | 0.396
NCI-H2347 | 0.634
SK-LU-1 | 0.423
NCI-H1395 | 0.45

Cell Line | relative viability
201T | 0.828
NCI-H1915 | 0.286
HCC-827 | 0.655
LXF-289 | 1.04
NCI-H23 | 0.314
NCI-H647 | 0.549
NCI-H1651 | 0.181
EPLC-272H | 0.761
NCI-H1355 | 0.818
NCI-H3122 | 0.648
NCI-H1437 | 0.625
NCI-H1755 | 0.934
NCI-H2023 | 0.51
HCC-15 | 0.722
NCI-H1793 | 0.88
PC-14 | 0.318
EKVX | 0.853
LC-2-ad | 0.681

Same assay, conditions: first compound 1 µM

Cell Line | relative viability
NCI-H2405 | 0.895
HOP-62 | 0.39
A549 | 0.363
LU99A | 0.291
BEN | 1.21
HARA | 0.602
HCC-78 | 0.773
NCI-H322M | 0.795
LCLC-97TM1 | 0.371
NCI-H2009 | 0.724
A-427 | 0.77
NCI-H441 | 0.533
NCI-H661 | 0.733
NCI-H1734 | 0.509
NCI-H460 | 0.509
NCI-H2347 | 0.632
SK-LU-1 | 0.396
NCI-H1395 | 0.492

Cell Line | relative viability
201T | 0.87
NCI-H1915 | 0.236
HCC-827 | 0.62
LXF-289 | 1.05
NCI-H23 | 0.318
NCI-H647 | 0.495
NCI-H1651 | 0.181
EPLC-272H | 0.481
NCI-H1355 | 0.744
NCI-H3122 | 0.714
NCI-H1437 | 0.663
NCI-H1755 | 0.809
NCI-H2023 | 0.504
HCC-15 | 0.748
NCI-H1793 | 1.02
PC-14 | 0.265
EKVX | 0.88
LC-2-ad | 0.716

Same assay, conditions: first compound 3.162 µM

Cell Line | relative viability
NCI-H2405 | 0.723
HOP-62 | 0.333
A549 | 0.155
LU99A | 0.251
BEN | 1.01
HARA | 0.547
HCC-78 | 0.83
NCI-H322M | 0.621
LCLC-97TM1 | 0.198
NCI-H2009 | 0.611
A-427 | 0.52
NCI-H441 | 0.22
NCI-H661 | 0.759
NCI-H1734 | 0.304
NCI-H460 | 0.526
NCI-H2347 | 0.568
SK-LU-1 | 0.271
NCI-H1395 | 0.43

Cell Line | relative viability
201T | 0.85
NCI-H1915 | 0.145
HCC-827 | 0.404
LXF-289 | 0.772
NCI-H23 | 0.241
NCI-H647 | 0.539
NCI-H1651 | 0.187
EPLC-272H | 0.121
NCI-H1355 | 0.775
NCI-H3122 | 0.793
NCI-H1437 | 0.57
NCI-H1755 | 0.883
NCI-H2023 | 0.312
HCC-15 | 0.752
NCI-H1793 | 0.508
PC-14 | 0.216
EKVX | 0.984
LC-2-ad | 0.649

These cell lines were tested with NCC(=O)Nc1ccc(-n2nc(C(F)(F)F)cc2-c2ccc3c(ccc4ccccc43)c2)cc1 + COc1cc2c(Oc3ccc(NC(=O)C4(C(=O)Nc5ccc(F)cc5)CC4)cc3F)ccnc2cc1OCCCN1CCOCC1 [Foretinib] (partner 0.25 µM) in the same assay as above. Details: first compound 0.02 µM.
Summary of the method: as §1

Cell Line | relative viability
NCI-H2405 | 1.12
HOP-62 | 1.19
A549 | 0.923
LU99A | 0.855
BEN | 0.635
HARA | 0.976
HCC-78 | 0.551
NCI-H322M | 1.2
LCLC-97TM1 | 0.87
NCI-H2009 | 1.27
NCI-H441 | 0.91
NCI-H661 | 0.985
NCI-H1734 | 0.795
NCI-H460 | 1.04
NCI-H2347 | 1.36
SK-LU-1 | 0.845
NCI-H1395 | 1.12
201T | 1.12

Cell Line | relative viability
NCI-H1915 | 1.12
HCC-827 | 1.1
LXF-289 | 0.973
NCI-H23 | 1.05
NCI-H647 | 1.23
NCI-H1651 | 0.758
EPLC-272H | 0.686
NCI-H1355 | 0.954
NCI-H3122 | 0.973
NCI-H1437 | 1.26
NCI-H1755 | 0.928
NCI-H2023 | 1.01
HCC-15 | 1.07
NCI-H1793 | 0.622
PC-14 | 1.03
EKVX | 0.905
LC-2-ad | 0.93

Same assay, conditions: first compound 0.06325 µM

Cell Line | relative viability
NCI-H2405 | 1.07
HOP-62 | 1.16
A549 | 0.956
LU99A | 0.783
BEN | 0.602
HARA | 0.991
HCC-78 | 0.565
NCI-H322M | 0.945
LCLC-97TM1 | 0.999
NCI-H2009 | 1.19
A-427 | 1.2
NCI-H441 | 1.03
NCI-H661 | 0.985
NCI-H1734 | 0.875
NCI-H460 | 1.06
NCI-H2347 | 0.838
SK-LU-1 | 0.843
NCI-H1395 | 1.01

Reference: the supplement of paper PMC10307832
